Assay results from patent publication US5348977A, “Cobalt complexes as anti-cancer agents” (Warner Lambert Company, priority 1991, dated 1994).

Experiments:
[1] = Square wave voltammetry, peak potential of cathodic wave; format: physicochemical; settings: vs NHE, platinum disc electrode, 0.15 M (n-Bu4 N)ClO4 in CH2 Cl2, ferrocene internal reference
Text: E1/2 Peak potentials (vs NHE) of cathodic wave, determined by square wave voltammetry at a platinum disc electrode in 0.15 M (n-Bu4 N)ClO4 in CH2 Cl2 with ferrocene as an internal reference.

UV4 cells [2] = assay: Growth inhibition, UV4 cells with lethally-irradiated AA8 feeder cells, aerobic or hypoxic 18 h (Table 3); format: cell-based; settings: aerobic IC50 /hypoxic IC50, UV4, 18 h
Method: (§1) IC50 Growth inhibition studies were performed as described in detail elsewhere (W. R. Wilson, R. F. Anderson and W. A. Denny. J. Med. Chem., 1989, 32, 23; G. J. Finlay, B. C. Baguley and W. R. Wilson. Anal. Biochem., 1984, 139, 172.), using 200 viable AA8 or 300 viable UV4 cells plus 5000 lethally-irradiated AA8 feeder cells per well in 96-well tissue culture dishes. AA8 and UV4 cells were maintained in logarithmic-phase growth in […] tissue culture flasks with subculture twice weekly by trypsinization. The growth medium was antibiotic-free Alpha MEM with 10% v/v heat-inactivated (56° C., 40 min) fetal calf serum. Doubling times were approximately 14h for AA8 and […] cells.
(§2) air/N2 ratio Ratio of IC50 values after exposure as detailed above under either aerobic (air) or hypoxic (N2) conditions (=aerobic IC50 /hypoxic IC50).
(§3) HF Ratio of IC50 values for a compound after exposure as detailed above against AA8 and UV4 cell lines (=IC50 (AA8)/IC50 (UV4)).

AA8 cells [3] = assay: Growth inhibition, AA8 cells with lethally-irradiated AA8 feeder cells, aerobic or hypoxic 18 h (Table 3); format: cell-based, hamster; settings: for IC50: AA8, aerobic, 18 h exposure, read-out: IC50 (air) AA8; for HF(air): IC50 (AA8)/IC50 (UV4), aerobic, 1080 min; for IC50 (air)/IC50 (N2) AA8: aerobic IC50 /hypoxic IC50, AA8, 18 h
Method: as §1, §2, §3

UV5 cells = assay: Growth inhibition, UV5 cells, aerobic 18 h (Table 2); format: cell-based; settings: 18 h exposure, 1 determination
Method: (§4) ([Co(Macac)2 (DCE)]ClO4) was prepared as described in Example E. Growth inhibition studies were performed as described in detail by W. R. Wilson, R. F. Anderson and W. A. Denny in J. Med. Chem., 1989 32, 23 and by G. J. Finlay, B. C. Baguley and W. R. Wilson in Anal. Biochem., 1984, 139, 172, herein specifically incorporated by reference. 200 AA8 cells in 96 well tissue culture dishes, 300 UV4 cells in 96 well tissue culture dishes, 300 UV5 cells in 96 well tissue culture dishes, 50 EMT6 cells in 96 well tissue culture dishes, 200 SCC7 cells in 96 well tissue culture dishes, 1500 FME cells in 96 well tissue culture dishes and 500 HCT-8 cells in 96 well tissue culture dishes were prepared. The cells were maintained in logarithmic-phase growth in 25 cm tissue culture flasks with subculture twice weekly by trypsinization. The growth medium was antibiotic-free Alpha MEM with 10% v/v heat-inactivated (56° C., 40 min.) fetal calf serum. Doubling times were approximately 14 hours for AAS, 16 hours for UV4, 16 hours for UV5, 10 hours for EMT6, 14 hours for SCC7, 24 hours for FME and 20 hours for HCT-8 cells. Cultures were tested for mycoplasma contamination frequently, using a cytochemical staining method (I. R. Chen, Exp. Cell Res., 1977, 104, 255). […]

AA8 cells [4] = assay: Growth inhibition, AA8 cells, aerobic 18 h (Table 2); format: cell-based, hamster; settings: 18 h exposure, 5 determinations
Method: as §4

UV4 cells [5] = assay: Growth inhibition, UV4 cells, aerobic 18 h (Table 2); format: cell-based; settings: 18 h exposure, 5 determinations
Method: as §4

FME cells = assay: Growth inhibition, FME cells, aerobic 18 h (Table 2); format: cell-based, human
Method: as §4

HCT-8 cells = assay: Growth inhibition, HCT-8 cells, aerobic 18 h (Table 2); format: cell-based; settings: HCT-8 (human colon carcinoma), 18 h exposure, 1 determination
Method: as §4

EMT6 cells = assay: Growth inhibition, EMT6 cells, aerobic 18 h (Table 2); format: cell-based; settings: 18 h exposure, 6 determinations
Method: as §4

SCC7 cells = assay: Growth inhibition, SCC7 cells, aerobic 18 h (Table 2); format: cell-based; settings: 18 h exposure, 1 determination
Method: as §4

Row | Substance | E1/2 [1] | IC50 (air)/IC50 (N2) UV4 (UV4 cells [2]) | IC50 (AA8 cells [3]) | HF(air) (AA8 cells [3]) | IC50 (air)/IC50 (N2) AA8 (AA8 cells [3]) | IC50 (UV5 cells) | IC50 (AA8 cells [4]) | IC50 (UV4 cells [5]) | IC50 (FME cells; FME (human breast carcinoma), aerobic, 18 h exposure, 6 determinations) | potency in human lines as compared to AA8 (FME cells; FME and HCT-8 versus AA8, aerobic) | IC50 (HCT-8 cells) | IC50 (EMT6 cells) | IC50 (SCC7 cells)
1 | [Co(Etacac)2 (DCE)]Cl.2H2 O [Compound 8] | -352 mV | 2.14 ± 0.56 | 1560 ± 80 nM | 21.2 ± 4.0 | 1.28 ± 0.23 |  |  |  |  |  |  |  | 
2 | [Co(acac)2 (DCE)]ClO4 [Compound 6] | -232 mV | 0.85 ± 0.03 | 1750 ± 100 nM | 48.2 ± 9.0 | 1.33 ± 0.13 |  |  |  |  |  |  |  | 
3 | [Co(Clacac)2 (BCE)]Cl [Compound 5] | -132 mV | 0.92 ± 0.21 | 26100 ± 2000 nM | 12.8 ± 3.5 | 0.54 ± 0.12 |  |  |  |  |  |  |  | 
4 | [Co(Macac)2 (BCE)]ClO4 [Compound 2] | -420 mV |  | 992000 nM | 3.25 | < 1 |  |  |  |  |  |  |  | 
5 | [Co(Macac)2 (DCE)]ClO4 [Compound 7] | -307 mV | 2.03 ± 0.47 | 2910 ± 470 nM | 50.8 ± 3.7 | 2.81 ± 0.16 | 2640 nM | 4560 ± 620 nM | 100 ± 20 nM | 1300 ± 130 nM | higher potency (lower IC50) in both of the human lines as compared to AA8 | 4440 nM | 1610 ± 210 nM | 310 nM
6 | [Co(Pracac)2 (BCE)]ClO4 [Compound 4] | -500 mV | 1.20 ± 0.50 | 18500 ± 3300 nM | 3.5 ± 0.7 | 0.85 ± 0.35 |  |  |  |  |  |  |  | 
7 | [Co(acac)2 (BCE)]ClO4 [Compound 1] | -308 mV | 3.76 ± 1.46 | 893000 ± 161000 nM | 14.0 ± 4.3 | 0.42 ± 0.06 |  |  |  |  |  |  |  | 
8 | [Co(Etacac)2 (BCE)]ClO4 [Compound 3] | -460 mV | 1.77 ± 0.75 | 139000 ± 18300 nM | 4.8 ± 1.4 | 0.79 ± 0.24 |  |  |  |  |  |  |  | 
